From PMC11476552, “Synthesis and Preliminary Studies for In Vitro Biological Activity of Two New Water-Soluble Bis(thio)carbohydrazones and Their Copper(II) and Zinc(II) Complexes” (International Journal of Molecular Sciences, 2024)
Like-named read-outs stand apart in the source and are kept apart here.

Test: Proton dissociation constants by UV-visible spectrophotometry
Type: physicochemical
Conditions: aqueous buffer solutions
Description: The proton dissociation constants of Na2H4L^1·5.5 H2O (bis-TCH) were studied by registering the UV–visible spectra in aqueous solution between pH 3.98 and 10.00 (Figure 1A).
Between pH = 3.98 and 6.00, the solutions were colourless with absorption maxima at 237 and 320 nm. From pH = 6.49, the solution was pale green, and the colour became more intense until pH = 10.00; the colour change was accompanied by the appearance of bands at 253 and 393 nm, with a shoulder at 445 nm. […] This value is similar to that reported for the deprotonation of the phenolic moiety of sodium 5-sulfonate-salicylaldehyde thiosemicarbazones. The values of pKa1 and pKa2, associated with the proton dissociation of the sulfonic groups, are expected to have much lower values (below 3) and could not be determined from these experiments. Potentiometric titrations were performed in an attempt to determine the value of the pKa of the hydrazidic NH protons (pKa5 and pKa6) and, possibly, those of the protonated sulfonate groups. Effectively, potentiometric data allowed us to determine the pKa5 value, along with pKa3 and pKa4 (Table 2). The values of pKa3 and pKa4 obtained by potentiometry are consistent with those obtained by spectrophotometric titrations.
Similarly, the proton dissociation constants of bis-CH were studied spectrophotometrically in aqueous solution between pH = 3.98 and 10.00 (Figure 1B). […] The spectrophotometric data were processed by means of HypSpec2014 software, leading to pKa3 = 7.34(1) and pKa4 = 8.58(1), which were assigned to the deprotonation of the two phenolic OH groups (Table 2). As for bis-TCH, the single-site pKa value of the phenolic groups can be estimated as the average pKa (7.96). Additionally, to complete the analysis, we carried out potentiometric titrations of bis-CH starting from a very acidic pH. […] Importantly, no dissociation of the hydrazidic NH groups was observed, a behaviour consistent with that reported in the literature.
The UV–visible spectra were collected using a Thermo Scientific Evolution 260 Bio spectrophotometer equipped with a Peltier temperature controller. Aqueous buffer stock solutions (50 mM) were prepared as follows: acetate buffer solutions (pH = 3.98, 4.62, and 5.00) were prepared by mixing appropriate volumes of AcOH 50 mM and AcONa·3H2O 50 mM solutions. MES (pH = 5.51, 6.00, and 6.49), HEPES (pH = 7.00, 7.48, and 8.01) and CHES (pH = 8.62, 9.01, 9.51, and 10.00) buffer solutions were obtained by suspending appropriate amounts of solid MES/HEPES/CHES in water, adding aqueous NaOH 100 mM until the desired pH was reached. The pH was measured using a Crison Basic 20 pH meter connected with a Hamilton glass electrode. Calibration of the glass electrode was carried out daily. All solutions were prepared using double-distilled water. For all the solutions, the ionic strength was 0.1 M NaCl.
Samples used for the study of protonation equilibria of the ligands were prepared as follows. […] For each solution, the absorption spectrum was collected in the 220–600 nm range at 298.2 K. The spectral data collection was carried out immediately after the preparation of the samples and repeated after 3 and 10 min for all the samples at different pH values to check the stability of the ligand. […] The complex formation equilibria at pH 2.5 or 7.4 of bis-TCH and bis-CH with Cu(II) and Zn(II) ions were studied by direct spectrophotometric titrations of solutions of the ligands with the metal ions, and the samples were prepared as follows. Appropriate aliquots of the stock solutions of the ligands were diluted in a quartz cuvette of 1 cm path length using HEPES buffer (pH 7.4) or by adding HCl aqueous solution (pH 2.5) to obtain ca. 17 µM ligand solutions in a total volume of 2.6 mL. […]

[1] = UV-visible spectrophotometry, aqueous solution, T = 298.2 K, phenolic group, read-out: pKa3
[2] = UV-visible spectrophotometry, aqueous solution, T = 298.2 K, phenolic group, read-out: pKa4
[3] = average of spectrophotometric pKa3 and pKa4, read-out: single-site pKa value of the phenolic groups (average pKa)

Compound | pKa [1] | pKa [2] | pKa [3]
COc1cc(S(=O)(=O)[O-])cc(/C=N/NC(=O)N/N=C/c2cc(S(=O)(=O)[O-])cc(OC)c2O)c1O.[Na+].[Na+] [bis-CH, Bis-(sodium 3-methoxy-5-sulfonate-salicylaldehyde)-carbohydrazone] | 7.34 | 8.58 | 7.96
COc1cc(S(=O)(=O)[O-])cc(/C=N/NC(=S)N/N=C/c2cc(S(=O)(=O)[O-])cc(OC)c2O)c1O.[Na+].[Na+] [bis-TCH, Bis-(sodium 3-methoxy-5-sulfonate-salicylaldehyde)-thiocarbohydrazone] | 6.78 | 8.77 | 7.78
